Measurements reported in ChEMBL document CHEMBL1134375, “Synthesis of 2-amino-5-sulfanyl-1,3,4-thiadiazole derivatives and evaluation of their antidepressant and anxiolytic activity” (2001).
Calls of active or inactive are those of the source. The rule behind the calls is not given here.

Assays:
Mus musculus [1] = species on record: Mus musculus; experiment: Maximum percentage decrease in immobility time was determined by despair test in Male albino Swiss mice; NE=no effect; type: functional
[2] = Maximum percentage decrease in immobility time was determined by despair test at a dose of 1 mg/kg in Male albino Swiss mice; type: functional, Mus musculus
[3] = Maximum percentage decrease in immobility time was determined by despair test at a dose of 50 mg/kg in Male albino Swiss mice; type: functional, Mus musculus
[4] = Maximum percentage decrease in immobility time was determined by despair test at a dose of 0.1 mg/kg in Male albino Swiss mice; type: functional, Mus musculus
[5] = Maximum percentage decrease in immobility time was determined by despair test at a dose of 5 mg/kg in Male albino Swiss mice; type: functional, Mus musculus
[6] = Maximum percentage decrease in immobility time was determined by despair test at a dose of 0.3 mg/kg in Male albino Swiss mice; type: functional, Mus musculus
Rattus norvegicus [7] = experiment: Percentage decrease in immobility time, after acute administration (intraperitoneally) in rat dosed at 20 mg/kg; type: functional; details: route intraperitoneal
Rattus norvegicus [8] = experiment: Percentage decrease in immobility time, after subchronic administration (intraperitoneally) in rat dosed at 20 mg/kg; type: functional; details: route intraperitoneal
[9] = Maximum percentage decrease in immobility time was determined by despair test at a dose of 0.25 mg/kg in Male albino Swiss mice; type: functional, Mus musculus
[10] = Maximum percentage decrease in immobility time was determined by despair test at a dose of 0.5 mg/kg in Male albino Swiss mice; type: functional, Mus musculus
[11] = Maximum percentage decrease in immobility time was determined by despair test at a dose of 0.06 mg/kg in Male albino Swiss mice; type: functional, Mus musculus
[12] = Maximum percentage decrease in immobility time was determined by despair test at a dose of 10 mg/kg in Male albino Swiss mice; type: functional, Mus musculus
Rattus norvegicus [13] = experiment: Maximum percentage decrease in immobility time was determined after acute intraperitoneal administration of a dose of 10 mg/kg in rat; type: functional
Rattus norvegicus [14] = experiment: Maximum percentage decrease in immobility time was determined after acute intraperitoneal administration of a dose of 20 mg/kg in rat; type: functional
Rattus norvegicus [15] = experiment: Maximum percentage decrease in immobility time was determined after subchronic administration of a dose of 1.25 mg/kg in rat; type: functional
Rattus norvegicus [16] = experiment: Maximum percentage decrease in immobility time was determined after subchronic administration of a dose of 2.5 mg/kg in rat; type: functional
Rattus norvegicus [17] = experiment: Maximum percentage decrease in immobility time was determined after subchronic administration of a dose of 5 mg/kg in rat; type: functional
Rattus norvegicus [18] = experiment: Maximum percentage decrease in immobility time was determined after acute intraperitoneal administration of a dose of 5 mg/kg in rat; type: functional
[19] = Percentage decrease in motor activity after intraperitoneal administration of a dose of 300 mg/kg in Male albino Swiss mice; type: functional, Mus musculus
[20] = Percentage decrease in motor activity after intraperitoneal administration of a dose of 400 mg/kg in Male albino Swiss mice; type: functional, Mus musculus
[21] = Percentage decrease in motor activity after intraperitoneal administration of a dose of 500 mg/kg in Male albino Swiss mice; type: functional, Mus musculus
[22] = Percentage decrease in motor activity after intraperitoneal administration of a dose of 600 mg/kg in Male albino Swiss mice; type: functional, Mus musculus
Rattus norvegicus [23] = experiment: Amnesia inducing potential (S1 latency) was determined by passive avoidance test in rat 0.5 mg/kg dose; type: functional
Rattus norvegicus [24] = experiment: Amnesia inducing potential (S1 latency) was determined by passive avoidance test in rat at 0 mg/kg dose; type: functional
Rattus norvegicus [25] = experiment: Amnesia inducing potential (S1 latency) was determined by passive avoidance test in rat at 2 mg/kg dose; type: functional
Rattus norvegicus [26] = experiment: Amnesia inducing potential (S1 latency) was determined by passive avoidance test in ratat 1 mg/kg dose; type: functional
Rattus norvegicus [27] = experiment: Amnesia inducing potential (S2 latency) was determined by passive avoidance test in rat at 0.5 mg/kg dose; type: functional
Rattus norvegicus [28] = experiment: Amnesia inducing potential (S2 latency) was determined by passive avoidance test in rat at 1 mg/kg dose; type: functional
Rattus norvegicus [29] = experiment: Amnesia inducing potential (S2 latency) was determined by passive avoidance test in rat at 2 mg/kg dose; type: functional
Rattus norvegicus [30] = experiment: Amnesia inducing potential (S2 latency) was determined by passive avoidance test in ratin rat at 0 mg/kg dose; type: functional
Mus musculus [31] = experiment: Ethanol potentiation in mice (intraperitoneal administration); details: ip
Mus musculus [32] = experiment: Effective dose determined by rotarod test in mice (intraperitoneal administration); details: ip
Mus musculus [33] = species on record: Mus musculus; experiment: Maximum percentage decrease in immobility time in mice, determined by despair test; NE=no effect; type: functional

## CC(=O)Nc1nnc(SCc2ccc(Cl)cc2)s1
Mus musculus [1]
  Maximum percentage decrease in immobility time: inactive

## CC(=O)Nc1nnc(SC(C)C)s1
[2]
  Decrease: 19%

## CSc1nnc(N)s1
[3]
  Decrease: 23%

## COc1cc(CSc2nnc(NC(C)=O)s2)cc(OC)c1OC
[4]
  Decrease: 14%

## Cc1cccc(CSc2nnc(N)s2)c1
[5]
  Decrease: 17%

## COc1ccc(CSc2nnc(N)s2)cc1
[6]
  Decrease: 16%

## CN(C)CCCN1c2ccccc2CCc2ccccc21 [IMIPRAMINE]
Rattus norvegicus [7]
  Decrease: <45%
Rattus norvegicus [8]
  Decrease: <56%

## CC(=O)N(C)c1nnc(SC(C)C)s1
[9]
  Decrease: 17%

## Nc1nnc(SCc2cccc([N+](=O)[O-])c2)s1
Mus musculus [1]
  Maximum percentage decrease in immobility time: inactive

## CSc1nnc(N(C)C(C)=O)s1
Mus musculus [1]
  Maximum percentage decrease in immobility time: inactive

## COc1cc(CSc2nnc(N)s2)cc(OC)c1OC
Mus musculus [1]
  Maximum percentage decrease in immobility time: inactive

## CCCCCCC(=O)Nc1nnc(SCc2ccccc2)s1
Mus musculus [1]
  Maximum percentage decrease in immobility time: inactive

## COc1ccc(CSc2nnc(NC(C)=O)s2)cc1
[10]
  Decrease: 10%

## Nc1nnc(SCc2ccc(Cl)cc2)s1
[4]
  Decrease: 15%

## COc1cccc(CSc2nnc(NC(C)=O)s2)c1
Mus musculus [1]
  Maximum percentage decrease in immobility time: inactive

## CC(=O)Nc1nnc(SCc2ccccc2)s1
[11]
  Decrease: 22%

## Nc1nnc(SCc2ccccc2)s1
[12]
  Decrease: 35%
Rattus norvegicus [13]
  Decrease: 10%
Rattus norvegicus [14]
  Decrease: <24%
Rattus norvegicus [15]
  Decrease: <23%
Rattus norvegicus [16]
  Decrease: <31%
Rattus norvegicus [17]
  Decrease: <28%
Rattus norvegicus [18]
  Decrease: <33%

## CC(=O)Nc1nnc(SCc2ccc([N+](=O)[O-])cc2)s1
[9]
  Decrease: 16%

## CC(=O)Nc1nnc(SCc2ccc(C)cc2)s1
Mus musculus [1]
  Maximum percentage decrease in immobility time: inactive

## Cc1ccc(CSc2nnc(N)s2)cc1
Mus musculus [1]
  Maximum percentage decrease in immobility time: inactive

## COc1cccc(CSc2nnc(N)s2)c1
[12]
  Decrease: 21%
[19]
  Decrease: 19%
[20]
  Decrease: <26%
[21]
  Decrease: <46%
[22]
  Decrease: <68%
Rattus norvegicus [23]
  Activity: 4.7
Rattus norvegicus [24]
  Activity: 5.6
Rattus norvegicus [25]
  Activity: 7.2
Rattus norvegicus [26]
  Activity: 5.6
Rattus norvegicus [27]
  Activity: 146
Rattus norvegicus [28]
  Activity: 135
Rattus norvegicus [29]
  Activity: 180
Rattus norvegicus [30]
  Activity: 166
Mus musculus [31]
  ED50: 162 mg/kg
Mus musculus [32]
  ED50: 534 mg/kg

## O=C(Nc1nnc(SCc2ccccc2)s1)c1ccccc1
Mus musculus [1]
  Maximum percentage decrease in immobility time: inactive

## CC(C)Sc1nnc(N)s1
[12]
  Decrease: 17%

## Nc1nnc(SCc2cccc(Cl)c2)s1
Mus musculus [1]
  Maximum percentage decrease in immobility time: inactive

## Nc1nnc(SCc2ccc([N+](=O)[O-])cc2)s1
Mus musculus [33]
  NE: inactive

## CC(=O)Nc1nnc(SCc2cccc(Cl)c2)s1
Mus musculus [1]
  Maximum percentage decrease in immobility time: inactive

## CC(=O)Nc1nnc(SCc2cccc([N+](=O)[O-])c2)s1
Mus musculus [1]
  Maximum percentage decrease in immobility time: inactive

## CCCSc1nnc(N)s1
Mus musculus [33]
  NE: inactive

## CCC(=O)Nc1nnc(SCc2ccccc2)s1
Mus musculus [1]
  Maximum percentage decrease in immobility time: inactive
